Experimental findings from patent US10350199B2, “3-(1h-pyrrolo[2,3-b]pyridin-2-yl)-1h-indazoles and therapeutic uses thereof” (Samumed, LLC, priority 2015, dated 2019) are described below.

One may read the pEC50 as the EC50 on a negative log10 scale, so that one unit is a factor of ten. Usually inhibition stands for the relative decrease from the control value, in per cent.

Assay type in all cases: cell-based
Assay [1] deals with primary human fibroblasts derived from IPF patients (LL29 cells) treated with TGF-β1. Put plainly: Inhibition of the fibrotic process: αSMA staining in TGF-β1 treated LL29 fibroblasts. Conditions: Fibroblast; for pEC50: 96 h, LL29 cells, TGF-β1 20 ng/mL, 4 days, % αSMA positive cells; for inhibition at 10 µM: read-out: percent inhibition at 10 μM. Summed up:
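IPF-patient-derived LL29 lung fibroblasts in F12 with 1% FBS, stimulated with TGF-β1 alongside compound; TGF-β1 plus DMSO wells served as controls. After 4 days, nuclei stained with 1 μM SYTOX green for 30 min at room temperature, alongside αSMA staining.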

In assay [2] the test system is Wnt activity (Sp5-Luc reporter, SW480 colon carcinoma cells). The experiment in a line: Wnt activity screening assay, Sp5-Luc reporter gene in SW480 cells. Conditions: Homo sapiens; for inhibition at 10 µM: SW480, read-out: percent inhibition at 10 μM; for pEC50: Sp5-Luc reporter, SW480 cells, overnight incubation. Summed up: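 SW480 cells stably transduced with lentiviral Sp5 promoter (eight TCF/LEF sites)-firefly luciferase, plated at 4,000 cells/well in 1% FBS medium and incubated overnight at 37° C. Luminescence read after BrightGlo addition, normalized to DMSO-only cells; EC50 from four-parameter variable-slope nonlinear regression.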
(In a reporter assay the amount or activity of a reporter protein is the signal.)

Assay [3] has as its system IL-6 (THP-1 human monocyte cell line). Put plainly: IL-6 inhibition in LPS-stimulated THP-1 cells (HTRF). Conditions: for pEC50: IL-6 inhibition, LPS-stimulated THP-1 cells, HTRF; for inhibition at 10 µM: THP-1, read-out: percentage in parentheses beside EC50 >10 (IL-6 inhibition). In outline:
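THP-1 cells kept 24 h in 1% FBS medium, treated 2 h at 37 °C, then stimulated with 500 ng/mL LPS for another 22 h. IL-6 measured by HTRF as the 665/620 nm ratio; EC50 from a four-parameter fit normalized to DMSO controls.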
Background: In TR-FRET formats the signal depends on donor and acceptor labels being close together.

In assay [4] the test system is primary human mesenchymal stem cells (hMSCs). The experiment in a line: Induction of chondrogenesis in human mesenchymal stem cells (nodule area, Rhodamine B/Nile Red). Conditions: hMSC chondrogenesis; for EC50: concentration required to induce 50% levels of chondrogenesis of TGF-β3 positive control, read-out: Conc (nM) of 50% TGF-β3 activity; for Emax: relative to TGF-β3 (10 ng/mL) positive control, read-out: Max. Activity as % TGF-β3 activity. The text has this: Representative compounds were screened using primary human mesenchymal stem cells (hMSCs) to determine their ability to induce chondrogenesis (process by which cartilage is developed).
Primary human mesenchymal stem cells (hMSCs) were purchased from Lonza (Walkersville, Md.) and expanded in Mesenchymal Stem Cell Growth Media (Lonza). Cells between passage 3 and 6 were used for the experiments.
Area of nodules in each well was normalized to the average of 3 DMSO treated wells on the same plate using Excel (Microsoft Inc.). The normalized averages (fold change over DMSO) of 2 or 3 replicate wells for each compound concentration were calculated. Due to solubility limitations of some of the compounds, curve fitting was incomplete leading to inaccurate EC50 determinations.
Using TGF-β3 as a positive control, the concentration of representative compounds required to induce 50% levels of chondrogenesis is reported. In addition, the maximum activity of each compound and the respective dose that each compound reached maximum chondrogenesis activity is reported.

For assay [5], the system named is SW480 colon cancer cells. Put plainly: Cell viability assay (CellTiter-Blue), SW480 cells, four days. Conditions: Homo sapiens; for pEC50: 96 h, SW480 cell viability, four days, CellTiter-Blue; for inhibition at 10 µM: SW480, read-out: percent inhibition at 10 μM. Summed up: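 Fluorescence from resazurin reduced to resorufin by metabolically active cells was the read-out, taken after ~3 h with CellTiter-Blue.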
Background: The colour change of resazurin is a common sign of viable cells or microbes.

Structures are written as SMILES. pEC50: −log10 of the molar value.

`Cc1ccncc1-c1ccc2[nH]nc(-c3cc4c(-c5ccccc5F)ccnc4[nH]3)c2c1` [Compound 61, 3-(4-(2-Fluorophenyl)-1H-pyrrolo[2,3-b]pyridin-2-yl)-5-(4-methylpyridin-3-yl)-1H-indazole]: the pEC50 in assay [1] was 6.35; in assay [2] it was less than 5.00; in assay [3] it was less than 5.00; in assay [5], less than 5.00. The inhibition at 10 µM in assay [2] worked out at 3.5%; in assay [3], 22.7%; in assay [5] it was 14.9%. Moreover, the EC50 in assay [4] was determined as 30 nM. Besides, the Emax in assay [4] amounted to 54%.
Regarding `CC(C)CC(=O)Nc1cncc(-c2ccc3[nH]nc(-c4cc5c(-c6cccnc6)ccnc5[nH]4)c3c2)c1` [Compound 86, 3-Methyl-N-(5-(3-(4-(pyridin-3-yl)-1H-pyrrolo[2,3-b]pyridin-2-yl)-1H-indazol-5-yl)pyridin-3-yl)butanamide], the pEC50 in assay [1] was less than 5.00; in assay [2], 6.74; in assay [3], 6.26; in assay [5], less than 5.00. Besides, the inhibition at 10 µM in assay [1] was determined as 25.9%; in assay [5], 44.6%. The EC50 in assay [4] stood at 900 nM. The Emax in assay [4] was 104%.
In the case of `c1cncc(-c2ccc3[nH]nc(-c4cc5c(-c6cccnc6)ccnc5[nH]4)c3c2)c1` [Compound 88, 5-(Pyridin-3-yl)-3-(4-(pyridin-3-yl)-1H-pyrrolo[2,3-b]pyridin-2-yl)-1H-indazole], the negative logarithm of the EC50 (pEC50) in assay [1] was less than 5.00; in assay [2], less than 5.00; in assay [3], 6.19; in assay [5], less than 5.00. Also, the figures for the inhibition at 10 µM in assay [1], in assay [2] and in assay [5] were 0%, 48.8% and 11.2%, respectively. In addition, the Emax in assay [4] came to 17%.
Turning to `CCNCc1cncc(-c2ccc3[nH]nc(-c4cc5c(-c6cccnc6)ccnc5[nH]4)c3c2)c1` [Compound 90, N-((5-(3-(4-(Pyridin-3-yl)-1H-pyrrolo[2,3-b]pyridin-2-yl)-1H-indazol-5-yl)pyridin-3-yl)methyl)ethanamine], the pEC50 in assay [1] was less than 5.00; in assay [2] it was less than 5.00; in assay [3], 6.25; in assay [5] it was less than 5.00. For the same compound, the inhibition at 10 µM is 0% in assay [1], 28.6% in assay [2] and 31.3% in assay [5]. In assay [4], the Emax stood at 29%.
With `CC(C)Nc1cncc(-c2ccc3[nH]nc(-c4cc5c(-c6cccnc6)ccnc5[nH]4)c3c2)c1` [Compound 96, N-Isopropyl-5-(3-(4-(pyridin-3-yl)-1H-pyrrolo[2,3-b]pyridin-2-yl)-1H-indazol-5-yl)pyridin-3-amine], the pEC50 in assay [1] is less than 5.00; in assay [2], less than 5.00; in assay [3] it was 6.39; in assay [5], less than 5.00. Besides, the figures for the inhibition at 10 µM in assay [1], in assay [2] and in assay [5] were 10%, 38.9% and 28.2%, respectively. The Emax in assay [4] was found to be 45%.
Consider `c1cncc(-c2ccnc3[nH]c(-c4n[nH]c5ccc(-c6cncc(CN7CCCCC7)c6)cc45)cc23)c1` [Compound 99, 5-(5-(Piperidin-1-ylmethyl)pyridin-3-yl)-3-(4-(pyridin-3-yl)-1H-pyrrolo[2,3-b]pyridin-2-yl)-1H-indazole], for which the pEC50 in assay [1], in assay [2], in assay [3] and in assay [5] was less than 5.00 each time. For the same compound, the inhibition at 10 µM in assay [1] came to 4%; in assay [2], 18.6%; in assay [3], 0%; in assay [5], 50.6%. In addition, in assay [4], the EC50 is 30 nM. Also, the Emax in assay [4] is 62%.
For the compound `O=C(Nc1cncc(-c2ccc3[nH]nc(-c4cc5c(-c6cccnc6)ccnc5[nH]4)c3c2)c1)C1CCCCC1` [Compound 107, N-(5-(3-(4-(Pyridin-3-yl)-1H-pyrrolo[2,3-b]pyridin-2-yl)-1H-indazol-5-yl)pyridin-3-yl)cyclohexanecarboxamide], the negative logarithm of the EC50 (pEC50) in assay [1], in assay [2], in assay [3] and in assay [5] was less than 5.00 each time. The inhibition at 10 µM in assay [1] is 41.7%; in assay [2] it was 10.6%; in assay [3] it was 34.4%; in assay [5] it was 12%. In addition, the Emax in assay [4] was 39%.
Consider `FC1(F)CCN(Cc2cncc(-c3ccc4[nH]nc(-c5cc6c(-c7cccnc7)ccnc6[nH]5)c4c3)c2)C1` [Compound 110, 5-(5-((3,3-Difluoropyrrolidin-1-yl)methyl)pyridin-3-yl)-3-(4-(pyridin-3-yl)-1H-pyrrolo[2,3-b]pyridin-2-yl)-1H-indazole], for which the pEC50 in assay [1] is 7.02; in assay [2] it was 6.28; in assay [3], 5.48; in assay [5], less than 5.00. Besides, the Emax in assay [4] was 20%. Moreover, the inhibition at 10 µM in assay [5] came to 51.8%.
Take `Cc1ccncc1-c1ccc2[nH]nc(-c3cc4c(-c5ccncc5)ccnc4[nH]3)c2c1` [Compound 117, 5-(4-Methylpyridin-3-yl)-3-(4-(pyridin-4-yl)-1H-pyrrolo[2,3-b]pyridin-2-yl)-1H-indazole]: the pEC50 in assay [1], in assay [2], in assay [3] and in assay [5] was less than 5.00 in each case. The inhibition at 10 µM in assay [1] is 44.2%; in assay [2] it was 31.8%; in assay [3] it was 31.5%; in assay [5], 4.6%. In addition, in assay [4], the Emax was found to be 44%.
As to `CC(C)(C)C(=O)Nc1cncc(-c2ccc3[nH]nc(-c4cc5c(-c6ccncc6)ccnc5[nH]4)c3c2)c1` [Compound 120, N-(5-(3-(4-(Pyridin-4-yl)-1H-pyrrolo[2,3-b]pyridin-2-yl)-1H-indazol-5-yl)pyridin-3-yl)pivalamide], the pEC50 in assay [1], in assay [2], in assay [3] and in assay [5] was less than 5.00 each time. Besides, the inhibition at 10 µM turned out to be 12.8% in assay [1], 36.6% in assay [2], 35.6% in assay [3] and 10.7% in assay [5]. In assay [4], the Emax is 44%.
Turning to `O=C(Nc1cncc(-c2ccc3[nH]nc(-c4cc5c(-c6ccncc6)ccnc5[nH]4)c3c2)c1)c1ccccc1` [Compound 123, N-(5-(3-(4-(Pyridin-4-yl)-1H-pyrrolo[2,3-b]pyridin-2-yl)-1H-indazol-5-yl)pyridin-3-yl)benzamide], the pEC50 in assay [1], in assay [2], in assay [3] and in assay [5] was less than 5.00 in each case. The inhibition at 10 µM stood at 49.2% in assay [1], 17.3% in assay [2], 20.6% in assay [3] and 7.2% in assay [5]. Further, in assay [4], the Emax was determined as 19%.
In the case of `CN(C)Cc1cncc(-c2ccc3[nH]nc(-c4cc5c(-c6ccncc6)ccnc5[nH]4)c3c2)c1` [Compound 125, N,N-Dimethyl-1-(5-(3-(4-(pyridin-4-yl)-1H-pyrrolo[2,3-b]pyridin-2-yl)-1H-indazol-5-yl)pyridin-3-yl)methanamine], the negative-log EC50 (pEC50) in assay [1], in assay [2], in assay [3] and in assay [5] was less than 5.00 each time. The inhibition at 10 µM was 0% in assay [1], 29.7% in assay [2], 49.7% in assay [3] and 7.4% in assay [5]. In addition, the Emax in assay [4] came to 37%.
With `CCCCC(=O)Nc1cncc(-c2ccc3[nH]nc(-c4cc5c(-c6ccncc6)ccnc5[nH]4)c3c2)c1` [Compound 131, N-(5-(3-(4-(Pyridin-4-yl)-1H-pyrrolo[2,3-b]pyridin-2-yl)-1H-indazol-5-yl)pyridin-3-yl)pentanamide], the pEC50 in assay [1], in assay [2], in assay [3] and in assay [5] was less than 5.00 each time. Also, the inhibition at 10 µM was determined as 6.3% in assay [1], 16.7% in assay [2], 31.5% in assay [3] and 10.6% in assay [5]. The Emax in assay [4] worked out at 18%.
